Data reported in ChEMBL document CHEMBL1201862, “PubChem BioAssay data set” (2004).
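Values below derive from 48-hour exposures of cells grown in 96-well plates, with endpoints linearly interpolated between the two concentrations bracketing the appropriate inhibition level. GI50 is the concentration that inhibits growth by half.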 Active and inactive are the calls of the source. Cut-off read from the data, not from the text of the source: active = GI50 up to about 1.1 µM and inactive = higher.

Experiments:
Assay in all cases: NCI tumour cell line growth inhibition, 48 h
M19-MEL = tested on: M19-MEL
HCC 2998 = tested on: HCC 2998
NCI-H23 = tested on: NCI-H23
RPMI-8226 = tested on: RPMI-8226
CAKI-1 = tested on: CAKI-1
SNB-19 = tested on: SNB-19
DLD-1 = tested on: DLD-1
SF-295 = tested on: SF-295
HOP-92 = tested on: HOP-92
A498 = tested on: A498
LOX IMVI = tested on: LOX IMVI
SN12C = tested on: SN12C
HT-29 = tested on: HT-29
KM-20L2 = tested on: KM-20L2
OVCAR-8 = tested on: OVCAR-8
UACC-62 = tested on: UACC-62

Measured: GI50

CNCc1cc(OC)ccc1-c1ccc(OC)c(OC)c1OC
inactive: M19-MEL > 100 µM | HCC 2998 > 88.7 µM | NCI-H23 > 100 µM | RPMI-8226 > 100 µM | CAKI-1 > 100 µM | SNB-19 > 100 µM | DLD-1 > 100 µM | SF-295 75 µM | HOP-92 > 70.6 µM | A498 > 100 µM | LOX IMVI > 96.8 µM | SN12C > 100 µM | HT-29 82.6 µM | KM-20L2 > 100 µM | OVCAR-8 > 100 µM | UACC-62 > 100 µM

Clc1ccc2c(Cl)ncnc2c1
inactive: M19-MEL > 100 µM | HCC 2998 > 100 µM | NCI-H23 > 100 µM | RPMI-8226 > 100 µM | CAKI-1 > 100 µM | SNB-19 > 100 µM | DLD-1 > 100 µM | SF-295 > 100 µM | HOP-92 85.7 µM | A498 > 100 µM | LOX IMVI > 100 µM | SN12C > 100 µM | HT-29 > 100 µM | KM-20L2 > 100 µM | OVCAR-8 > 100 µM | UACC-62 > 100 µM

CCc1cccc(C(C)C)c1NC(=O)C(=O)C(Cc1nc2ccccc2nc1O)C(=O)OC (stereo not drawn)
inactive: M19-MEL > 100 µM | HCC 2998 > 100 µM | NCI-H23 > 100 µM | RPMI-8226 39.2 µM | CAKI-1 > 100 µM | SNB-19 > 100 µM | DLD-1 > 100 µM | SF-295 > 100 µM | HOP-92 > 100 µM | A498 > 100 µM | LOX IMVI 45 µM | SN12C > 100 µM | HT-29 95.3 µM | KM-20L2 > 100 µM | OVCAR-8 > 100 µM | UACC-62 > 100 µM
